Patent publication US20170050894A1, “FERTILIZER MIXTURE CONTAINING NITRIFICATION INHIBITOR” (EUROCHEM AGRO GMBH, priority 2013, published 2017)

Test: Storage stability in an accelerated test (open glass beaker, 40 days at 30° C.)
Format: physicochemical
Conditions: for Analytical value (concentration of nitrification inhibitor on the mineral fertilizer): Value at start
Procedure: The concentration of nitrification inhibitor on the mineral fertilizer was determined before, during and after storage at two different depths in the bed, and the loss of nitrification inhibitor was ascertained. In each case about 10 to 30 g of treated mineral fertilizer were stored. The concentration of DMPP at the start was 1.028 g/kg fertilizer; for 2-(N-3,4-dimethylpyrazole)succinic acid, the figure was 1.244 g/kg fertilizer.
After 20 and 40 days, samples were taken from a surface region of the fertilizer bed (0 to 5 cm sampling depth and >5 cm sampling depth).
The results are shown in table 1 below, where DMPSA denotes 2-(N-3,4-dimethylpyrazole)succinic acid.

| Analytical value (concentration of nitrification inhibitor on the mineral fertilizer) [g/kg] | loss of nitrification inhibitor on storage, compared with DMPP (storage over 20 to 40 days on CAN) | SMILES |
| --- | --- | --- |
| 1.244 | much lower | Cc1cn(C(CC(=O)O)C(=O)O)nc1C (stereo not drawn) [DMPSA, 2-(N-3,4-dimethylpyrazole)succinic acid] |
| 1.028 |  | Cc1c[nH]nc1C.O=P(O)(O)O [DMPP, 3,4-dimethylpyrazole phosphate, reference compound] |
